This is an account of results in paper PMC7529758, “Over-activation of a nonessential bacterial protease DegP as an antibiotic strategy” (Communications Biology, 2020).

≈ marks a conversion by molar mass, not a printed value. *1 amine or outer side, *2 acyl side, *3 side chain or, on linkers, in order; H or OH if unused. Where a SMILES comes first, the peptide text is derived from it. Bridges are numbered along the chain shown (N, C = ends). Roman numbers before positions name the chains, in order. TBMB = c1c(C[*:1])cc(C[*:3])cc1C[*:2]

Assay [1] concerns DegP^WT. Description: DegP activation assay with the reporter peptide. Type of assay: biochemical, Escherichia coli. The settings on record: reporter 100 μM. The procedure: DegP activation experiments were performed as previously described[14],[22]. All the in vitro assays were performed in a buffer containing 50 mM sodium phosphate (pH 8) and 100 mM NaCl. Two-fold serial dilutions of the activator were incubated with DegP^WT (1, 3, or 10 μM) for 5 min. After incubation, the reporter peptide (Abz-[…]^NO2D; Abz, 2-aminobenzoic acid; Y^NO2, 3-nitrotyrosine; 100 μM final) was added. DegP activation was monitored by increased fluorescence by using a micro-plate reader (excitation 320 nm, emission 430 nm; Infinite F200pro, Tecan). Assays were performed in triplicates.

Assay [2] has as its system E. coli imp4213. Description: microbe, parasite or virus in culture. The following applies: imp4213, 12 h, LB. It is filed as cell-based, Escherichia coli. The procedure:
(§1) The susceptibility of E. coli to activators was analyzed by determining the MICs. Two-fold serial dilutions of activators in LB broth were added to bacteria (OD600 = 0.1) in 96-well plates. Plates were incubated with shaking at 30 or 42 °C. After 12 h of incubation, the MIC was defined as the lowest concentration of the activator to inhibit the growth of bacteria by using a micro-plate reader (Absorbance 600 nm, Infinite M200pro, Tecan). The assay was performed in triplicates.

The test system of assay [3] is wild-type Escherichia coli (W3110). As to the kind of experiment: Growth (OD600) of wild-type cells. Type of assay: cell-based. The settings on record: LB; OD600 after 12 h; 42 °C. The procedure: as §1
Assay [4] deals with T1, DegP^S210A (Escherichia coli, UniProt P0C0V0, C83S/C95S/N322C/S236A).
T1 construct: pET22b-degP(full length; C57S/C69S/N296C/S210A)_6His; 6His (C); made in house; host or cells: E. coli (inferred from the pET plasmid)
T1 sequence (P0C0V0 27-474 C83S/C95S/S236A/N322C): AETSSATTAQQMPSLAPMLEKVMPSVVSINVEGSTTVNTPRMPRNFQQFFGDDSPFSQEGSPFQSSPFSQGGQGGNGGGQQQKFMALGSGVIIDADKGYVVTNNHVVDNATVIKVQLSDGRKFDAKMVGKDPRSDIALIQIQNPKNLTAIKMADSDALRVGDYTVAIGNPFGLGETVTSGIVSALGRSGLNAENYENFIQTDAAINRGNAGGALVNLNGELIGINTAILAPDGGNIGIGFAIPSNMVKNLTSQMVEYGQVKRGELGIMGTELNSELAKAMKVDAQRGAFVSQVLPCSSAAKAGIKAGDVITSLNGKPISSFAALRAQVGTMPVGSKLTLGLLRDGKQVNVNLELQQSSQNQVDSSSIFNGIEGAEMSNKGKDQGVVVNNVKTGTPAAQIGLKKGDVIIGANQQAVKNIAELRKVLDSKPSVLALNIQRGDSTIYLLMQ
Description: FRET assay of DegP cage assembly. It is filed as biochemical. The settings on record: FRET of donor- and acceptor-labeled DegP variants. The procedure:
Fluorescence resonance energy transfer (FRET) assay was performed as previously described[14],[22]. Equimolar amounts of fluorescence donor- and acceptor-labeled DegP^S210A (total 0.1, 1 or 3 μM) was mixed in a buffer containing 50 mM sodium phosphate (pH 8) and 100 mM NaCl. Two-fold serial dilutions of activators were added to the DegP mixtures. Alexa Fluor 555 C2-maleinide and 647 C2-maleinide (life technologies) were used as fluorescence dyes. Cage assembly of DegP was monitored by increased FRET ratio using the micro-plate reader (excitation 520 nm, emission 570 or 670 nm, Infinite M200pro, Tecan). Assays were performed in triplicates.

In assay [5] the target is T2, DegP^S210A (Escherichia coli, UniProt P0C0V0, S236A).
T2 construct: pET22b-degP(full length; S210A)_6His; 6His (C); made in house
T2 sequence (P0C0V0 27-474 S236A): as the sequence (P0C0V0 27-474 C83S/C95S/S236A/N322C) above, with S57C, S69C, C296N counted along it
Description: Fluorescence anisotropy binding assay. The procedure:
Fluorescence anisotropy assay was performed as previously described[14],[22]. Two-fold serial dilutions of activators were mixed with a fluorescence-labeled peptide (^flC18–58 or ^fl45–58, 50 nM; Oregon Green 488 maleimide, Invitrogen) and DegP^S210A (10 μM for ^flC18–58; 80 μM for ^fl45–58). Anisotropy was monitored by using a micro-plate reader (excitation 485 nm, emission 535 nm, Infinite F200pro, Tecan). The assay was performed in triplicates.
For orientation: Fluorescence polarisation rises when a labelled molecule tumbles more slowly, as on binding a larger partner.

Assay [6] deals with E.coli imp4213 strain. Type of assay: cell-based, Escherichia coli. The following applies: log-phase cells; 2x MIC; both 30 °C and 42 °C; CFU. The procedure: Time-kill experiment was performed by counting the viable bacteria at each time point. The E.coli imp4213 strain was cultured with streptomycin overnight and diluted 1:100 in fresh LB broth. When the OD600 value became 0.01, the activator was added at 2x MIC. The sample was incubated with shaking (180 rpm) at 30 °C or 42 °C, and aliquots were taken after 0, 1, 2, 4, 6, 8, 10, or 12 h. These aliquots were serially diluted (ten-fold) and plated on LB agar plates for colony counts. Experiments were performed in triplicates. The kill curves were plotted with the CFU/mL against time.
Experiments with cells in the stationary phase, however, were performed without dilution of the overnight culture.

Turning to `CC(C)C[C@H](NC(=O)[C@H](CCCCN)NC(=O)[C@H](CCCNC(=N)N)NC(=O)[C@H](Cc1ccc(O)cc1)NC(=O)[C@@H](N)CSCc1cc(CSC[C@H](N)C(=O)N[C@@H](Cc2ccc(O)cc2)C(=O)N[C@@H](CCCNC(=N)N)C(=O)N[C@@H](CCCCN)C(=O)N[C@@H](CC(C)C)C(=O)O)cc(CSC[C@H](N)C(=O)N[C@@H](Cc2ccc(O)cc2)C(=O)N[C@@H](CCCNC(=N)N)C(=O)N[C@@H](CCCCN)C(=O)N[C@@H](CC(C)C)C(=O)O)c1)C(=O)O` [TMB_CYRKL] (I: H-CYRKL-OH / II: H-CYRKL-OH / III: H-CYRKL-OH; linker I:1-II:1-III:1 via TBMB), the “increase of the cleavage rate compared with Lpp^+Leu and TMB_CKYRKL” value in assay [1] was “at least ten times more”. Further, the “activation of DegP (cleavage rate of the reporter peptide)” value in assay [1] (DegP 1 or 10 μM, increasing concentrations) is listed as “activation was observed”. This compound also had an MIC in assay [2] (30 °C) of 320 µM (≈ 691 µg/mL). Besides, the MIC in assay [2] (Fig. 3a and Supplementary Fig. 6b (30 °C and 42 °C)) was in the range of 320 to 640 µM. In assay [3], the “growth of wild-type E. coli W3110” value was “did not inhibit growth”. Further, in assay [4], the “assembly of DegP cages” value was “assemble DegP cages”. Further, in assay [5] (DegPS210A 10 μM), the “concentrations that enhance binding of fl18-58” value is recorded as 5~ 40 µM and the “concentrations that interrupt the interaction of fl18-58” value is given as over 40 µM. Further, in assay [5] (DegPS210A 80 μM), the “concentrations that enhance binding of fl45-58” value is recorded as 10~ 80 µM and the “concentrations that interrupt the interaction of fl45-58” value is over 80 µM. In addition, the “reduction of the number of viable cells” value in assay [6] is on record as “two orders of magnitude”.
